We go through nine compounds from patent US6436999B1, “Diacyl-substituted guanidines, a process for their preparation, their use as medicine or diagnostic aid, and medicine containing them” (Hoechst Aktiengesellschaft, priority 1993, dated 2002).

Structures can show the parent of a compound that is named as a salt.

As a reminder, the melting point is the temperature of the solid-liquid transition. Usually IC50 stands for the concentration that inhibits the measured activity by half.

Data set [1] has as its target T1, Na^+/H^+ exchanger of rabbit erythrocytes (Oryctolagus cuniculus, UniProt P23791).
T1 construct: endogenous in cells; host or cells: erythrocytes in whole blood from cholesterol-fed New Zealand White rabbits
Nature of the data set: Inhibition of the Na+/H+ exchanger of rabbit erythrocytes (amiloride-sensitive sodium influx, flame photometry). Format: cell-based. The following applies: hyperosmolar salt/sucrose medium, pH 7.4, 37° C., Na^+ influx by flame photometry. From the text: New Zealand White rabbits (Ivanovas) were given a standard diet containing 2% cholesterol for six weeks in order to activate Na^+/H^+ exchange and thus to be able to use flame photometry to determine the Na^+ influx into the erythrocytes via Na^+/H^+ exchange. The blood was removed from the aural arteries and rendered incoagulable by the addition of 25 IU of potassium heparin per ml. One part of each sample was used for the duplicate determination of the hematocrit by centrifugation. Aliquots of in each case 100 μl were employed for measuring the initial content of Na^+ in the erythrocytes.
In order to determine the amiloride-sensitive sodium influx, 100 μl of each blood sample were in each case incubated, at pH 7.4 and 37° C., in 5 ml of a hyperosmolar salt/sucrose medium (mmol/l: 140 NaCl, 3 KCl, 150 sucrose, 0.1 ouabain, 20 tris(hydroxymethyl)aminomethane). The erythrocytes were then washed three times with ice cold MgCl2/ouabain solution (mmol/l: 112 MgCl2, 0.1 ouabain) and hemolyzed in 2.0 ml of distilled water. The intracellular content of sodium was determined by flame photometry.
The nett influx of Na^+ was calculated from the difference between the initial sodium values and the sodium content of the erythrocytes following incubation. The amiloride-inhibitable sodium influx was given by the difference in the sodium content of the erythrocytes following incubation with and without 3×10^−4 mol/l amiloride. The same procedure was also used in the case of the compounds according invention.

T1 sequence (P23791 whole entry): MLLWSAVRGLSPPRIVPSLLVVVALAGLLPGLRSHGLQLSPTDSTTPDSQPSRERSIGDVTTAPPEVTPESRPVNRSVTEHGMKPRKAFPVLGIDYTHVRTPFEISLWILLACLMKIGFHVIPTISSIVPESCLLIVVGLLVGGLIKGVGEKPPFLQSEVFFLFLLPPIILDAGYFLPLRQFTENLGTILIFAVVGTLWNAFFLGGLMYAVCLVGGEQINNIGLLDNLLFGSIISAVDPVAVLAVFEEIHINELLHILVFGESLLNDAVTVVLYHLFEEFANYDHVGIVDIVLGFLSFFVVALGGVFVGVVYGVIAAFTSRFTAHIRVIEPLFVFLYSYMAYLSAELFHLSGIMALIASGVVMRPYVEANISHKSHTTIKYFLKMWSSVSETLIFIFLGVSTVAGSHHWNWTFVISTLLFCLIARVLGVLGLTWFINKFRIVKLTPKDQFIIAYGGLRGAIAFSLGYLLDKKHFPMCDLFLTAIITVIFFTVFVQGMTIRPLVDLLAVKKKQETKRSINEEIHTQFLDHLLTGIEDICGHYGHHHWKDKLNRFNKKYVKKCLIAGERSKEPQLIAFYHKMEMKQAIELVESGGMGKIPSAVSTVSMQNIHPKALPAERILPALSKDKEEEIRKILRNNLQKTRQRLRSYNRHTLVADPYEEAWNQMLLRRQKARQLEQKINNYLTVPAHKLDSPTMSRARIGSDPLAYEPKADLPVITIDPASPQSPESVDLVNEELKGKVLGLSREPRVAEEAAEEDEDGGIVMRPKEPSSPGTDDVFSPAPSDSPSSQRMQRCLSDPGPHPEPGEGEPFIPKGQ

As for `Cl.N=C(NC(=O)c1ccc(F)c(C(F)(F)F)c1)NC(=O)c1ccc(-n2ccnc2)c(C(F)(F)F)c1` [Example 4, N-[4-(1-Imidazolyl)-3-trifluoromethylbenzoyl]-N′-(4-fluoro-3-trifluoromethylbenzoyl)guanidine Hydrochloride], the melting point is 217 to 218 °C (dec.). Also, the IC50 in data set [1] turned out to be 3 µM.
Regarding `CC(Cc1cc(F)ccc1F)C(=O)NC(=N)NC(=O)C(C)Cc1cc(F)ccc1F` (stereo not shown) [Example 8, N,N′-Bis[3-(2,5-difluorophenyl)-2-methylpropionyl]guanidide], the IC50 in data set [1] is 0.3 µM.
Take `N=C(NC(=O)c1ccc(-n2ccnc2)c(C(F)(F)F)c1)NC(=O)c1ccc(-n2ccnc2)c(C(F)(F)F)c1` [Example 3, Bis[4-(l-imidazolyl)-3-trifluoromethylbenzoyl]guanidine]: the IC50 in data set [1] was found to be 5 µM.
`CC(C)c1ccc(C(=O)NC(=N)NC(=O)c2ccc(C(C)C)c(S(C)(=O)=O)c2)cc1S(C)(=O)=O` [Example 1, Bis(3-methylsulfonyl-4-i-propylbenzoyl)guanidine] yielded a melting point of 218 to 221 °C. Also, the IC50 in data set [1] was found to be 10 µM.
Regarding `N=C(NC(=O)CCc1ccccc1C(F)(F)F)NC(=O)CCc1ccccc1C(F)(F)F` [Example 7, N,N′-Bis[3-(2-trifluoromethylphenyl)propionyl]guanidide], the IC50 in data set [1] was 2 µM.
On to `N=C(NC(=O)CCc1ccccc1C(F)(F)F)NC(=O)CCc1ccccc1C(F)(F)F` (as salt: hydrochloride) [Example 7, N,N′-Bis[3-(2-trifluoromethylphenyl)propionyl]guanidide], for which the melting point is 75 °C.
For `C/C(=C\c1ccccc1)C(=O)NC(=N)NC(=O)/C(C)=C/c1ccccc1` [Example 6, N,N′-Bis[(E)-2-methylcinnamoyl]guanidide], the IC50 in data set [1] came out at 1.1 µM.
`N=C(NC(=O)c1ccc(F)c(C(F)(F)F)c1)NC(=O)c1ccc(F)c(C(F)(F)F)c1` [Example 2, Bis(4-fluoro-3-trifluoromethylbenzoyl)guanidine] registered a melting point of 143 to 145 °C. For the same compound, in data set [1], the IC50 amounted to 10 µM.
Compound `N=C(NC(=O)C1CCc2ccccc2C1)NC(=O)C1CCc2ccccc2C1` (stereo not shown) [Example 5, N,N′-Bis(1,2,3,4-tetrahydronaphthalene-2-carbonyl)guanidide] had a melting point of 99 °C. Besides, the IC50 in data set [1] was found to be 0.3 µM.
